Measured values taken from patent publication US8063088B2 (Hoffmann-La Roche Inc., priority 2008, dated 2011).

Experiments:
[1] = target: T1, human LXR beta (Homo sapiens, UniProt P55055); experiment: Radioligand binding assay (SPA), LXR beta LBD; conditions: radioligand displacement, LXR beta-LBD on SPA beads; read-out: LXRbeta Binding IC50
T1 construct: human LXR beta (aa 155 to 460); unspecified tag ('tagged versions'); made in house; host or cells: E. coli BL21 (pLysS)
T1 sequence (P55055 155-460): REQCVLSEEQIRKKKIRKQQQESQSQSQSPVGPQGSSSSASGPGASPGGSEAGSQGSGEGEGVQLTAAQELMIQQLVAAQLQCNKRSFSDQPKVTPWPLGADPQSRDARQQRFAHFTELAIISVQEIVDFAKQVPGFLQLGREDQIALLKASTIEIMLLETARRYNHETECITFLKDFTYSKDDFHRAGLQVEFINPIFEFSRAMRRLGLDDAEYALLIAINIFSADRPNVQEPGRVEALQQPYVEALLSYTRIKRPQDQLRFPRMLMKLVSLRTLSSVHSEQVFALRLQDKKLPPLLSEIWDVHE
Method: (§1) The following tests were carried out in order to determine the activity of the compounds of the present invention. Background information on the performed assays can be found in: Nichols J S et al. “Development of a scintillation proximity assay for peroxisome proliferator-activated receptor gamma ligand binding domain”, Anal Biochem. 1998, 257: 112-119.
(§2) Mammalian expression vectors were constructed to express full-length human LXR alpha and LXR beta. Bacterial expression vectors were constructed to produce tagged versions of the ligand binding domains (LBD) of human LXR alpha (aa 164 to 447) and human LXR beta (aa 155 to 460). To accomplish this, the portions of the sequences encoding the LBDs were amplified from the full-length clones by PCR and then subcloned into the plasmid vectors. Final clones were verified by DNA sequence analysis (Willy et al., Genes Dev. 1995, 9:1033-45; Song et al., Proc Natl Acad Sci USA. 1994, 91:10809-13).
(§3) Induction, expression, and purification of LBD proteins were performed in E. coli strain BL21 (pLysS) cells by standard methods (Ref: Current Protocols in Molecular Biology, Wiley Press, edited by Ausubel et al).
(§4) Radioligand Binding Assay
(§5) LXR alpha and LXR beta receptor binding were assayed in buffer consisting of 50 mM HEPES, pH 7.4, 10 mM NaCl, 5 mM MgCl2. For each 96-well reaction, 500 ng of LXRα-LBD or 700 ng of LXR beta-LBD proteins were bound to 80 μg or 40 μg SPA beads respectively, in a final volume of 50 μl by shaking. The resulting slurry was incubated for 1 h at RT and centrifuged for 2 min at 1300×g. The supernatant containing unbound protein was removed, and the semi-dry pellet containing the receptor-coated beads was re-suspended in 50 μl of buffer. Radioligand (eg. 100,000 dpm of (N-(2,2,2-trifluoroethyl)-N-[4-(2,2,2-trifluoro-1-hydroxy-1-trifluoromethylethyl)-phenyl]-benzenesulfonamide)) was added, and the reaction incubated at RT for 1 h in the presence of test compounds, and then scintillation proximity counting was performed. All binding assays were performed in 96-well plates and the amount of bound ligand was measured on a Packard TopCount using OptiPlates (Packard). Dose response curves were measured within a range of concentration from 10^−10 M to 10^−4 M.

[2] = target: T2, human LXR alpha (Homo sapiens, UniProt Q13133); experiment: Radioligand binding assay (SPA), LXR alpha LBD; conditions: radioligand displacement, LXRα-LBD on SPA beads; read-out: LXRalpha Binding IC50
T2 construct: human LXR alpha (aa 164 to 447); unspecified tag ('tagged versions'); made in house; host or cells: E. coli BL21 (pLysS)
T2 sequence (Q13133 164-447): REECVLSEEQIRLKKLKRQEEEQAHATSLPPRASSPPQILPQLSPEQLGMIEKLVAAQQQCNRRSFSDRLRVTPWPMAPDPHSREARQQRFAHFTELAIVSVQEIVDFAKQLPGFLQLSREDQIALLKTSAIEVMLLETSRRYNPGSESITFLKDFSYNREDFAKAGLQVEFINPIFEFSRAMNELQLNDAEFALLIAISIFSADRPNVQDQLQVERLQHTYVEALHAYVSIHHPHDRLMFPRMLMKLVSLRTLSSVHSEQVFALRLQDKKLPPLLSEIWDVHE
Method: as §1, §2, §3, §4, §5

IC50 [1] [nM]	IC50 [2] [nM]	SMILES
19300	44100	Cc1ccc(C)c(-c2cccc(C3CN(C(=O)OC(C)(C)C)CCC3c3ccccc3)c2)c1 (stereo not drawn) [Example 40, trans-3-(2′,5′-Dimethyl-biphenyl-3-yl)-4-phenyl-piperidine-1-carboxylic add tert-butyl ester]
355	5530	Cc1ccccc1N1CCN(C(=O)OC(C)(C)C)CC1c1cccc(-c2cccc(S(C)(=O)=O)c2)c1 (stereo not shown) [Example 48, 3-(3′-Methanesulfonyl-biphenyl-3-yl)-4-o-tolyl-piperazine-1-carboxylic acid tert-butyl ester]
3750	8880	Cc1ccccc1N1CCN(C(=O)OC(C)(C)C)CC1c1cccc(-c2cncc(S(C)(=O)=O)c2)c1 (stereo not shown) [Example 49, 3-[3-(5-Methanesulfonyl-pyridin-3-yl)-phenyl]-4-o-tolyl-piperazine-1-carboxylic acid tert-butyl ester]
165	12300	Cc1ccccc1N1CCN(S(=O)(=O)c2ccccc2)CC1c1cccc(-c2cccc(S(C)(=O)=O)c2)c1 (stereo not shown) [Example 50, 4-Benzenesulfonyl-2-(3′-methanesulfonyl-biphenyl-3-yl)-1-o-tolyl-piperazine]

Continued, molecule first:

SMILES	IC50 [1] [nM]	IC50 [2] [nM]
Cc1ccc(Cl)cc1-c1cccc(C2CN(S(=O)(=O)c3ccccc3)C(=O)N2C(C)C)c1 (stereo not shown) [Example 26, 1-Benzenesulfonyl-4-(5′-chloro-2′-methyl-biphenyl-3-yl)-3-isopropyl-imidazolidin-2-one]	315	1990
COc1ccc(F)cc1-c1cccc(C2CN(S(=O)(=O)c3ccccc3)C(=O)N2C(C)C)c1 (stereo not shown) [Example 27, 1-Benzenesulfonyl-4-(5′-fluoro-2′-methoxy-biphenyl-3-yl)-3-isopropyl-imidazolidin-2-one]	3800	6230
CC(C)N1C(=O)N(S(=O)(=O)c2ccccc2)CC1c1cccc(-c2cc(C#N)ccc2Cl)c1 (stereo not shown) [Example 28, 3′-(1-Benzenesulfonyl-3-isopropyl-2-oxo-imidazolidin-4-yl)-6-chloro-biphenyl-3-carbonitrile]	505	2960
CC(C)N1C(=O)N(S(=O)(=O)c2ccccc2)CC1c1cccc(-c2cccc(S(=O)(=O)NC(C)(C)C)c2)c1 (stereo not shown) [Example 29, 3′-(1-Benzenesulfonyl-3-isopropyl-2-oxo-imidazolidin-4-yl)-biphenyl-3-sulfonic acid tert-butylamide]	410	2250
CCOc1ccc(F)c(-c2cccc(C3CN(S(=O)(=O)c4ccccc4)C(=O)N3C(C)C)c2)c1 (stereo not shown) [Example 30, 1-Benzenesulfonyl-4-(5′-ethoxy-2′-fluoro-biphenyl-3-yl)-3-isopropyl-imidazolidin-2-one]	10.4	95
Cc1ccc(C)c(-c2cccc(C3CN(S(=O)(=O)c4ccccc4)C(=O)N3C(C)C)c2)c1 (stereo not shown) [Example 31, 1-Benzenesulfonyl-4-(2′,5′-dimethyl-biphenyl-3-yl)-3-isopropyl-imidazolidin-2-one]	165	815
CC(C)N1C(=O)N(S(=O)(=O)c2ccccc2)CC1c1cccc(-c2cc(F)ccc2F)c1 (stereo not shown) [Example 32, 1-Benzenesulfonyl-4-(2′,5′-difluoro-biphenyl-3-yl)-3-isopropyl-imidazolidin-2-one]	99.5	950
CS(=O)(=O)c1cccc(-c2cccc(C3CN(S(=O)(=O)c4ccccc4)CC(=O)N3c3ccccc3)c2)c1 (stereo not shown) [Example 33, 4-Benzenesulfonyl-6-(3′-methanesulfonyl-biphenyl-3-yl)-1-phenyl-piperazin-2-one]	530	52700
CS(=O)(=O)c1cccc(-c2cccc(C3CN(S(=O)(=O)c4ccccc4)CCN3c3ccccc3)c2)c1 (stereo not shown) [Example 34, 4-Benzenesulfonyl-2-(3′-methanesulfonyl-biphenyl-3-yl)-1-phenyl-piperazine]	2	56
NCc1cccc(-c2cccc(C3CN(S(=O)(=O)c4ccccc4)CCN3c3ccccc3)c2)c1 (stereo not shown) [Example 35, C-[3′-(4-Benzenesulfonyl-1-phenyl-piperazin-2-yl)-biphenyl-3-yl]-methylamine]	425	2620
